This is an account of results in patent US20240285700A1, “COMBINATION OF AN ONCOLYTIC VIRUS, AN ANTI-PD-1 INHIBITOR AND AN ACTIVATOR OF THE INNATE IMMUNE SYSTEM FOR USE IN THE TREATMENT OF PROSTATE CANCER” (priority 2021, published 2024).

“Also recorded” adds a separate entry of the source. Like-named read-outs stand apart in the source and are kept apart here.

The test system of one data set is lethal virus infection. Nature of the data set: protection against lethal virus infection in mice. Type of data set: in vivo. The following applies: not published. From the text: Following advanced experiment on carbohydrate chemistry at the Institute of Wood Chemistry at the University of Uppsala, the inventor was able to provide a water soluble, stimulatory aminated ß(1,3) glucan by treatment of natural, insoluble ß(1,3) with chloroacetaldehyde dimethyl acetal followed by reductive amination (3). The aminated ß(1,3) glucan derivative activated macrophages and thereby protected against otherwise lethal bacterial peritonitis in mice (4), as well as lethal virus infection in mice (not published).

A further data set has as its system macrophages. The following applies: more than forty polysaccharides tested; cited from earlier work.
The subject of the next data set is Meth A sarcoma. Nature of the data set: Meth A sarcoma implanted in the skin of mice, glucan treatment. The class given is in vivo, hybrid CB6 F1 (Balb/c×C 57131/6) mice. The protocol:
Meth A sarcoma was inoculated in the skin of hybrid CB6 F1 (Balb/c×C 57131/6) and grew progressive in immunized animals. […] When 5 mg of pure water-soluble aminated ß(1,3) glucan was injected intravenously or intraperitoneally on day 7, there was an almost immediate visible effect.

The next data set has as its system sarcoma SA-1. The data set can be described thus: sarcoma SA-1 in syngeneic mice, glucan treatment. The class given is in vivo, A strain mice. The source says:
To decide whether the ß(1,3) glucan regression was peculiar to the Meth A tumor, we also performed experiments with sarcoma SA-1, syngeneic in A strain mice.

In data set [1] the test system is lethal bacterial peritonitis. The following applies: mice, cited from earlier work.

As for aminated ß(1,3) glucan, in the data set on lethal virus infection, the “protection against lethal virus infection” value is “protected”. Further, in the data set with macrophages, the “ability to stimulate macrophages in vitro” value was “stimulatory”. The “tumor appearance 1 hour after injection” value in the data set on Meth A sarcoma (5 mg intravenously on day 7, saline tumors reddish and bulging) was “collapsed and whitish-grey”. Further, the “histological examination of tumor site” value in the data set on Meth A sarcoma (glucan-treated animals) is “acute inflammation around the tumor”. The “effect on tumor in non-immunized animals or treated on day 1, 3” value in the data set with Meth A sarcoma (non-immunized animals, or treatment on day 1, 3) was “little or no effect”. Moreover, the “condition of the animals after 200 days” value with Meth A sarcoma (one injection on day 7) was “unaffected and vital”. Also, in the data set with Meth A sarcoma (one injection on day 7 (5 mg i.v. or i.p.)), the “tumor at day 18-21 after inoculation” value is recorded as “No visible tumor; also recorded: completely replaced by scar tissue”. The “effect on tumor in TxB animals” value in the data set on Meth A sarcoma (thymectomized, x-ray irradiated and bonemarrow transplanted, day 8-14) is reported as “no effect”. For the same substance, in the data set on sarcoma SA-1 (after 18-21 days), the “cases in which tumors reappeared and resumed growth” value is given as “about one third”. Moreover, the “tumor regression compared with Meth A results” value in the data set with sarcoma SA-1 (sarcoma SA-1, A strain mice) was “essentially identical”. Besides, the “protection against otherwise lethal bacterial peritonitis” value was “protected” in data set [1] and “sufficient to prevent a lethal outcome” in data set [1] (listed as ß(1,3) glucan).
